According to EP2177209A1, “Intravenous solutions and uses” (priority 2008, dated 2010):
In brackets after ≈: the same amount, converted by molar mass.

Experiments:
[1] = test system: methicillin-resistant Staphylococcus aureus (MRSA)
[2] = test system: methicillin-susceptible Staphylococcus aureus (MSSA)
[3] = test system: methicillin-resistant Staphylococcus epidermidis (MRSE)
[4] = test system: methicillin-susceptible Staphylococcus epidermidis (MSSE)
[5] = test system: Group A Streptococci
[6] = test system: Group B Streptococci
[7] = test system: Group C Streptococci
[8] = test system: Streptococcus constellatus
[9] = test system: Streptococcus bovis
[10] = test system: Streptococcus mitis
[11] = test system: Streptococcus sanguis
[12] = test system: Streptococcus oralis
[13] = test system: Streptococcus pneumoniae
[14] = test system: Listeria monocytogenes; details: 20 library strains
[15] = test system: Escherichia coli; details: 50 strains
[16] = test system: Pseudomonas aeruginosa; details: 50 strains
[17] = test system: Haemophilus influenzae; details: 70 strains
[18] = test system: Moraxella catarrhalis; details: 50 strains
[19] = test system: Neisseria gonorrhoeae; details: 20 library strains
[20] = test system: Neisseria meningitidis; details: 20 library strains
[21] = test system: Helicobacter pylori; details: 5 library strains
[22] = test system: Bacteroides fragilis; details: 20 library strains
[23] = test system: Clostridium difficile; details: 10 library strains
[24] = test system: Clostridium perfringens; details: 10 library strains

CCCCCCCCCC(=O)N[C@@H](Cc1c[nH]c2ccccc12)C(=O)N[C@H](CC(N)=O)C(=O)N[C@@H](CC(=O)O)C(=O)N[C@@H]1C(=O)NCC(=O)N[C@@H](CCCN)C(=O)N[C@@H](CC(=O)O)C(=O)N[C@H](C)C(=O)N[C@@H](CC(=O)O)C(=O)NCC(=O)N[C@H](CO)C(=O)N[C@@H]([C@H](C)CC(=O)O)C(=O)N[C@@H](CC(=O)c2ccccc2N)C(=O)O[C@@H]1C [Daptomycin, daptomycin]
MIC 50% [1]: 0.25 µg/mL (≈ 0.154 µM) | MIC 90% [1]: 0.5 µg/mL (≈ 0.309 µM) | MIC MAX [1]: 1 µg/mL (≈ 0.617 µM) | MIC MIN [1]: 0.12 µg/mL (≈ 0.074 µM) | MIC 50% [2]: 0.25 µg/mL (≈ 0.154 µM) | MIC 90% [2]: 0.25 µg/mL (≈ 0.154 µM) | MIC MAX [2]: 0.5 µg/mL (≈ 0.309 µM) | MIC MIN [2]: 0.06 µg/mL (≈ 0.037 µM) | MIC 50% [3]: 0.25 µg/mL (≈ 0.154 µM) | MIC 90% [3]: 0.5 µg/mL (≈ 0.309 µM) | MIC MAX [3]: 0.5 µg/mL (≈ 0.309 µM) | MIC MIN [3]: 0.06 µg/mL (≈ 0.037 µM) | MIC 50% [4]: 0.25 µg/mL (≈ 0.154 µM) | MIC 90% [4]: 0.5 µg/mL (≈ 0.309 µM) | MIC MAX [4]: 1 µg/mL (≈ 0.617 µM) | MIC MIN [4]: 0.06 µg/mL (≈ 0.037 µM) | MIC 50% [5]: ≤0.03 µg/mL | MIC 90 [5]: 0.06 µg/mL (≈ 0.037 µM) | MIC MAX [5]: 0.12 µg/mL (≈ 0.074 µM) | MIC MIN [5]: ≤0.03 µg/mL | MIC 50% [6]: 0.5 µg/mL (≈ 0.309 µM) | MIC 90% [6]: 1 µg/mL (≈ 0.617 µM) | MIC MAX [6]: 1 µg/mL (≈ 0.617 µM) | MIC MIN [6]: 0.12 µg/mL (≈ 0.074 µM) | MIC 50% [7]: 0.12 µg/mL (≈ 0.074 µM) | MIC 90% [7]: 0.25 µg/mL (≈ 0.154 µM) | MIC MAX [7]: 0.5 µg/mL (≈ 0.309 µM) | MIC MIN [7]: ≤0.03 µg/mL | MIC 50% [8]: 0.5 µg/mL (≈ 0.309 µM) | MIC 90% [8]: 0.5 µg/mL (≈ 0.309 µM) | MIC MAX [8]: 0.5 µg/mL (≈ 0.309 µM) | MIC MIN [8]: 0.12 µg/mL (≈ 0.074 µM) | MIC 50% [9]: 0.06 µg/mL (≈ 0.037 µM) | MIC 90% [9]: 0.12 µg/mL (≈ 0.074 µM) | MIC MAX [9]: 0.12 µg/mL (≈ 0.074 µM) | MIC MIN [9]: ≤0.03 µg/mL | MIC 50% [10]: 0.5 µg/mL (≈ 0.309 µM) | MIC 90% [10]: 1 µg/mL (≈ 0.617 µM) | MIC MAX [10]: 1 µg/mL (≈ 0.617 µM) | MIC MIN [10]: 0.12 µg/mL (≈ 0.074 µM) | MIC 50% [11]: 0.25 µg/mL (≈ 0.154 µM) | MIC 90% [11]: 0.5 µg/mL (≈ 0.309 µM) | MIC 90% [12]: 2 µg/mL (≈ 1.23 µM) | MIC MAX [12]: 2 µg/mL (≈ 1.23 µM) | MIC MIN [12]: 0.25 µg/mL (≈ 0.154 µM) | MIC 50% [13]: 0.12 µg/mL (≈ 0.074 µM) | MIC 90% [13]: 0.5 µg/mL (≈ 0.309 µM) | MIC MAX [13]: 0.5 µg/mL (≈ 0.309 µM) | MIC MIN [13]: ≤0.03 µg/mL | MIC 50% [14]: 1 µg/mL (≈ 0.617 µM) | MIC 90% [14]: 2 µg/mL (≈ 1.23 µM) | MIC MAX [14]: ≥128 µg/mL | MIC MIN [14]: 0.015 µg/mL (≈ 0.00926 µM) | MIC 50% [15]: ≥128 µg/mL | MIC 90% [15]: ≥128 µg/mL | MIC MAX [15]: ≥128 µg/mL | MIC MIN [15]: ≥128 µg/mL | MIC 50% [16]: ≥128 µg/mL | MIC 90% [16]: ≥128 µg/mL | MIC MAX [16]: ≥128 µg/mL | MIC MIN [16]: ≥128 µg/mL | MIC 50% [17]: ≥128 µg/mL | MIC 90% [17]: ≥128 µg/mL | MIC MAX [17]: ≥128 µg/mL | MIC MIN [17]: ≥128 µg/mL | MIC 50% [18]: 8 µg/mL (≈ 4.94 µM) | MIC 90% [18]: 16 µg/mL (≈ 9.87 µM) | MIC MAX [18]: ≥128 µg/mL | MIC MIN [18]: 2 µg/mL (≈ 1.23 µM) | MIC 50% [19]: ≥128 µg/mL | MIC 90% [19]: ≥128 µg/mL | MIC MIN [19]: 64 µg/mL (≈ 39.5 µM) | MIC 50% [20]: 64 µg/mL (≈ 39.5 µM) | MIC MAX [20]: ≥128 µg/mL | MIC MIN [20]: 8 µg/mL (≈ 4.94 µM) | MIC 50% [21]: ≥128 µg/mL | MIC 90% [21]: ≥128 µg/mL | MIC MAX [21]: ≥128 µg/mL | MIC MIN [21]: ≥128 µg/mL | MIC 50% [22]: ≥128 µg/mL | MIC 90% [22]: ≥128 µg/mL | MIC MAX [22]: ≥128 µg/mL | MIC MIN [22]: ≥128 µg/mL | MIC 50% [23]: 0.25 µg/mL (≈ 0.154 µM) | MIC 90% [23]: 2 µg/mL (≈ 1.23 µM) | MIC MAX [23]: 2 µg/mL (≈ 1.23 µM) | MIC MIN [23]: 0.12 µg/mL (≈ 0.074 µM) | MIC 50% [24]: 1 µg/mL (≈ 0.617 µM)
